Key:
[1] = Cytotoxicity against Wistar rat CC1 cells assessed as cell viability at 1 to 20 ug/ml after 48 hrs by MTT assay; format: cell-based; conditions: cc-1, 48 h
[2] = system: alpha-glucosidase (Saccharomyces cerevisiae); assay: Potency index, ratio of acarbose IC50 to compound IC50 for alpha glucosidase (Saccharomyces cerevisiae)
[3] = Cytotoxicity against mouse 3T3L1 cells assessed as cell viability at 1 to 20 ug/ml after 48 hrs by MTT assay; format: cell-based; conditions: 3t3-l1, 48 h
[4] = biological target: alpha-glucosidase (Saccharomyces cerevisiae); assay: Inhibition of alpha-glucosidase (Saccharomyces cerevisiae) using p-nitrophenyl glucopyranoside as substrate preincubated for 10 mins followed by substrate addition measured after 30 mins by plate reader analysis

| Structure (SMILES) | Ratio IC50 [2] | IC50 [4] | inhibition [4] | Activity [1] | Activity [3] |
| --- | --- | --- | --- | --- | --- |
| O=C(N/N=C/c1ccc(O)cc1O)c1ccc(-c2nnc(-c3ccc4ncccc4c3)o2)cc1 |  | 8.45 µM |  | Non-toxic | Non-toxic |
| COc1ccc(O)c(/C=N/NC(=O)c2ccc(-c3nnc(-c4ccc5ncccc5c4)o3)cc2)c1 |  | 6.2 µM |  | Non-toxic | Non-toxic |
| O=C(N/N=C/c1cccc(O)c1)c1ccc(-c2nnc(-c3ccc4ncccc4c3)o2)cc1 |  | 39.2 µM |  | Non-toxic | Non-toxic |
| O=C(N/N=C/c1ccccn1)c1ccc(-c2nnc(-c3ccc4ncccc4c3)o2)cc1 |  | 40.5 µM |  | Non-toxic | Non-toxic |
| O=C(N/N=C/c1ccccc1[N+](=O)[O-])c1ccc(-c2nnc(-c3ccc4ncccc4c3)o2)cc1 |  | 15.2 µM |  | Non-toxic | Non-toxic |
| O=C(N/N=C/c1cccc([N+](=O)[O-])c1)c1ccc(-c2nnc(-c3ccc4ncccc4c3)o2)cc1 |  | 36.5 µM |  | Non-toxic | Non-toxic |
| O=C(N/N=C/c1cccc(Cl)c1)c1ccc(-c2nnc(-c3ccc4ncccc4c3)o2)cc1 |  | 30.2 µM |  | Non-toxic | Non-toxic |
| O=C(N/N=C/c1ccccc1O)c1ccc(-c2nnc(-c3ccc4ncccc4c3)o2)cc1 | > 14 | 2.86 µM |  | Non-toxic | Non-toxic |
| O=C(N/N=C/c1ccncc1)c1ccc(-c2nnc(-c3ccc4ncccc4c3)o2)cc1 |  |  | < 50% | Non-toxic | Non-toxic |
| O=C(N/N=C/c1ccc(O)c(O)c1)c1ccc(-c2nnc(-c3ccc4ncccc4c3)o2)cc1 | > 14 | 2.6 µM |  | Non-toxic | Non-toxic |
| Cc1ccc(/C=N/NC(=O)c2ccc(-c3nnc(-c4ccc5ncccc5c4)o3)cc2)cc1 |  | 102 µM |  | Non-toxic | Non-toxic |

More lines, main results first:

| Ratio IC50 [2] | IC50 [4] | inhibition [4] | Structure (SMILES) | Activity [1] | Activity [3] |
| --- | --- | --- | --- | --- | --- |
| > 14 | 2.6 µM |  | O=C(N/N=C/c1cc(O)c(O)cc1O)c1ccc(-c2nnc(-c3ccc4ncccc4c3)o2)cc1 | Non-toxic | Non-toxic |
|  | 3.9 µM |  | O=C(N/N=C/c1ccc(Cl)cc1)c1ccc(-c2nnc(-c3ccc4ncccc4c3)o2)cc1 | Non-toxic | Non-toxic |
|  | 37.1 µM |  | O=C(N/N=C/c1cc(O)cc(O)c1)c1ccc(-c2nnc(-c3ccc4ncccc4c3)o2)cc1 | Non-toxic | Non-toxic |
|  | 80.1 µM |  | Cc1ccccc1/C=N/NC(=O)c1ccc(-c2nnc(-c3ccc4ncccc4c3)o2)cc1 | Non-toxic | Non-toxic |
|  | 21.2 µM |  | COc1ccc(/C=N/NC(=O)c2ccc(-c3nnc(-c4ccc5ncccc5c4)o3)cc2)cc1O | Non-toxic | Non-toxic |
|  | 27.2 µM |  | O=C(N/N=C/c1ccc(O)cc1)c1ccc(-c2nnc(-c3ccc4ncccc4c3)o2)cc1 | Non-toxic | Non-toxic |
|  | 63.5 µM |  | O=C(N/N=C/c1ccc([N+](=O)[O-])cc1)c1ccc(-c2nnc(-c3ccc4ncccc4c3)o2)cc1 | Non-toxic | Non-toxic |
|  | 8.5 µM |  | O=C(N/N=C/c1cc(O)ccc1O)c1ccc(-c2nnc(-c3ccc4ncccc4c3)o2)cc1 | Non-toxic | Non-toxic |
|  | 100 µM |  | Cc1cccc(/C=N/NC(=O)c2ccc(-c3nnc(-c4ccc5ncccc5c4)o3)cc2)c1 | Non-toxic | Non-toxic |
|  | 6.8 µM |  | O=C(N/N=C/c1cccc(O)c1O)c1ccc(-c2nnc(-c3ccc4ncccc4c3)o2)cc1 | Non-toxic | Non-toxic |
|  | 4.16 µM |  | O=C(N/N=C/c1ccccc1Cl)c1ccc(-c2nnc(-c3ccc4ncccc4c3)o2)cc1 | Non-toxic | Non-toxic |
|  |  | < 50% | O=C(N/N=C/c1cccnc1)c1ccc(-c2nnc(-c3ccc4ncccc4c3)o2)cc1 | Non-toxic | Non-toxic |
|  | 8.12 µM |  | O=C(N/N=C/c1c(O)cc(O)cc1O)c1ccc(-c2nnc(-c3ccc4ncccc4c3)o2)cc1 | Non-toxic | Non-toxic |
|  | 9.2 µM |  | COc1ccc(/C=N/NC(=O)c2ccc(-c3nnc(-c4ccc5ncccc5c4)o3)cc2)c(O)c1 | Non-toxic | Non-toxic |

From ChEMBL document CHEMBL3751662, “Novel quinoline derivatives as potent in vitro -glucosidase inhibitors: in silico studies and SAR predictions” (Medchemcomm, 2015)
